How the values were obtained:
[1] = target: T1, Alpha-1D adrenergic receptor (Homo sapiens) (UniProt P25100); test: Inhibition of Adrenergic alpha1D at 10 µM in the Eurofins-Panlabs radioligand binding assay (Eurofins_assay_203400); details: Compound concentration 10.0 uM
T1 sequence (whole entry): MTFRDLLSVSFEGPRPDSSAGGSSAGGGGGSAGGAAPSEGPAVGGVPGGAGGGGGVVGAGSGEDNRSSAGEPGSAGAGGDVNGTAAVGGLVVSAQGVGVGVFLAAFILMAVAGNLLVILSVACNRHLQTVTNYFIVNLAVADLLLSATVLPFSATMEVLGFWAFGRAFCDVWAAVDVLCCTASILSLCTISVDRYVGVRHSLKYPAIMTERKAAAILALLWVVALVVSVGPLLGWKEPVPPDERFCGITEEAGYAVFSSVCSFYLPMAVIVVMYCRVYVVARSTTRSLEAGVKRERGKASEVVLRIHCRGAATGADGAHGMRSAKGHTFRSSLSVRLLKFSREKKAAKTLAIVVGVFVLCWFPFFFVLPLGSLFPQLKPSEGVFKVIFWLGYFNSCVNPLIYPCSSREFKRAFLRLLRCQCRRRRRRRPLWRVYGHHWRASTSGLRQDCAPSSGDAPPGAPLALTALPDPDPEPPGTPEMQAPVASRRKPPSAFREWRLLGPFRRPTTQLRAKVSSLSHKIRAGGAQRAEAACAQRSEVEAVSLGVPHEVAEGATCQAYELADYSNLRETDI

[2] = target: L-type calcium channel, dihydropyridine site (Cav1.2 alpha-1C) (Homo sapiens, UniProt Q13936); test: Inhibition of Calcium Channel L-Type, Dihydropyridine at 10 µM in the Eurofins-Panlabs radioligand binding assay (Eurofins_assay_214600); parameters: ligand concentration 0.1 nM, non-specific ligand with concentration 1 µM Nitrendipine, incubation time 90 min, incubation temperature 25 °C; details: Wistar, rat, rat cerebral cortex preparation, probe [3H] Nitrendipine; compound concentration 10 uM; target entry is the homologue from another species
Sequence of L-type calcium channel, dihydropyridine site (Cav1.2 alpha-1C) (Q13936 whole entry): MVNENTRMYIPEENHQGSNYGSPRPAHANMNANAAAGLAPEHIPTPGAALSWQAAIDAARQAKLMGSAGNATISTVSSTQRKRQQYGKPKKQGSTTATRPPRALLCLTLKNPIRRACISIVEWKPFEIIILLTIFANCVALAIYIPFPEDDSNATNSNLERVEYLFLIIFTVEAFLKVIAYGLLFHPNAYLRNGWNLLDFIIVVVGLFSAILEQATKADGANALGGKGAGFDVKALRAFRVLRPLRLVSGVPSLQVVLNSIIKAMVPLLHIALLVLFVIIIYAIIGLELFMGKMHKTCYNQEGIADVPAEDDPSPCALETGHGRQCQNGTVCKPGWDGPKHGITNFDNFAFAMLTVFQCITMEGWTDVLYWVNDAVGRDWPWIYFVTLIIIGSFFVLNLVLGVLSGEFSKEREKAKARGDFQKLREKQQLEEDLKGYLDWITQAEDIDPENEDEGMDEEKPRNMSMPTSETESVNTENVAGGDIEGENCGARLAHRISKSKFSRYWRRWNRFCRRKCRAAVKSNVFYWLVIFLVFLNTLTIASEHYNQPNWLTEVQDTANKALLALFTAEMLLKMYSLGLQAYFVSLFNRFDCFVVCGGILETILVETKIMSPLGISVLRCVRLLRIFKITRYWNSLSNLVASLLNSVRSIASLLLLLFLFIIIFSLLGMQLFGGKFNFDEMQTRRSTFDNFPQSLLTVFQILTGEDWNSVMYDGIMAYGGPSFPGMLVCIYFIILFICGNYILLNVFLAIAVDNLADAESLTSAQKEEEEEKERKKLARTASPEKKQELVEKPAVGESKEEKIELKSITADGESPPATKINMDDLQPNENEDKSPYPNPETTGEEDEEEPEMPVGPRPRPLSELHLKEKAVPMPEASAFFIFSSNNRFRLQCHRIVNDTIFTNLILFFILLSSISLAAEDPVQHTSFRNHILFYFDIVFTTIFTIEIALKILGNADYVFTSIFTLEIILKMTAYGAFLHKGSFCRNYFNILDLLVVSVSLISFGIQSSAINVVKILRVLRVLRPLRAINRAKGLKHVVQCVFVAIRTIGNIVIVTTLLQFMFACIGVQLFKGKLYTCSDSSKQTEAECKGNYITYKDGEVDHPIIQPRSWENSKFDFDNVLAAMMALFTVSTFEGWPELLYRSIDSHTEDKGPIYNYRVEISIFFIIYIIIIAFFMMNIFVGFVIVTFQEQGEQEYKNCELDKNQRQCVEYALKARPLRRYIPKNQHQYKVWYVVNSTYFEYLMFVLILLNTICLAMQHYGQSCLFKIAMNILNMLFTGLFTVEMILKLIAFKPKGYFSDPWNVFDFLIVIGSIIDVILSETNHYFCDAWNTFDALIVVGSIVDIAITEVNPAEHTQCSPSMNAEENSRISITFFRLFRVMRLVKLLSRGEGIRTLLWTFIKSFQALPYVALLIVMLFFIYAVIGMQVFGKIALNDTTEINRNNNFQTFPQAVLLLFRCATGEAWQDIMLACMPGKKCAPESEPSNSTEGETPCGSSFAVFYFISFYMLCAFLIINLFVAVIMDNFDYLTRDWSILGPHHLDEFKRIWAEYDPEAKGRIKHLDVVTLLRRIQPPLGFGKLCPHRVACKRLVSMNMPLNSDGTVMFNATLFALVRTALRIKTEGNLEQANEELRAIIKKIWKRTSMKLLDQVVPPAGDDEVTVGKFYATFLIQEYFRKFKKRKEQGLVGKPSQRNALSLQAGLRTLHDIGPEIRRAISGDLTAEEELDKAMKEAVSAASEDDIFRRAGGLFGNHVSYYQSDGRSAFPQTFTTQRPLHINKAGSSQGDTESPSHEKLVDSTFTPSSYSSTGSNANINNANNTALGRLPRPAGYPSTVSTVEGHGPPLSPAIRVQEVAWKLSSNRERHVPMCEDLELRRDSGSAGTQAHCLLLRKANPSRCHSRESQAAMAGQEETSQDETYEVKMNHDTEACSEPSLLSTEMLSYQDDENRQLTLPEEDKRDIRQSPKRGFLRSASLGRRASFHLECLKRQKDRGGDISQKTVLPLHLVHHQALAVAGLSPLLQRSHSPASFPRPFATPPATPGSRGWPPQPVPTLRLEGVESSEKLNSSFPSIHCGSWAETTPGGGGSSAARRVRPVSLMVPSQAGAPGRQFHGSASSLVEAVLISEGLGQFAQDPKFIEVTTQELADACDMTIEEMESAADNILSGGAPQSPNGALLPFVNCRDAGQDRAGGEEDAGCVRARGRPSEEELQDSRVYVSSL

[3] = target: Gamma-aminobutyric acid type B receptor subunit 1 (Homo sapiens) (UniProt Q9UBS5); test: Inhibition of GABAB1A at compound concentration of 10.0 uM in the Eurofins-Panlabs radioligand binding assay (Eurofins_assay_228610); parameters: ligand concentration 4 nM; details: Compound concentration 10.0 uM
Sequence of Gamma-aminobutyric acid type B receptor subunit 1 (Homo sapiens) (Q9UBS5 whole entry): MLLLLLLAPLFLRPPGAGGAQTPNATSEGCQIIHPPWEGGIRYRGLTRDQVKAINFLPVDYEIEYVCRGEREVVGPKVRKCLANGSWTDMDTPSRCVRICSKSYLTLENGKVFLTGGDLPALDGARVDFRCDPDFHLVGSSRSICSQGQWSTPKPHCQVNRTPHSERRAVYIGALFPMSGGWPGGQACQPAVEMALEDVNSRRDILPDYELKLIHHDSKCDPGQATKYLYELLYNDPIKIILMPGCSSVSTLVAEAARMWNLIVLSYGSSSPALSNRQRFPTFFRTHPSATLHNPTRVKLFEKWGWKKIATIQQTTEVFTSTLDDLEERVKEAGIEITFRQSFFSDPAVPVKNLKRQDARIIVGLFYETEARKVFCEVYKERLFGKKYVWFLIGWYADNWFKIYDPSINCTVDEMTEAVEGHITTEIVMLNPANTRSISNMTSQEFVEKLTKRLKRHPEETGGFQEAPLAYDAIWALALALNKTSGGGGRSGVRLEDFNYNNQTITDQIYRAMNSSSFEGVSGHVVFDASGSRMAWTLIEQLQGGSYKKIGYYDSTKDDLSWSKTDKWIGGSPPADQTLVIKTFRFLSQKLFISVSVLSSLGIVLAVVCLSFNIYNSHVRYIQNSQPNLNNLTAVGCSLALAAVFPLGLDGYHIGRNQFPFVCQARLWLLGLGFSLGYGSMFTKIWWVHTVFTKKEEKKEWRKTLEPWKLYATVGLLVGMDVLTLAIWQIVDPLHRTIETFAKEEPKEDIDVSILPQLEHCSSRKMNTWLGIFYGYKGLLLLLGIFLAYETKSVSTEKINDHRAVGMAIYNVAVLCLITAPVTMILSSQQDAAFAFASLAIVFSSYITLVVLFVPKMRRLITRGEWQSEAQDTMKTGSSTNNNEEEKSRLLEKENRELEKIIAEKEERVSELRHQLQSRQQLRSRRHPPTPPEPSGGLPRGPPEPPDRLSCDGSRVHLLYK

Mus musculus = species: Mus musculus; test: Inhibition of Interleukin IL-1 at 10 µM in the Eurofins-Panlabs radioligand binding assay (Eurofins_assay_243520); parameters: ligand concentration 0.1 nM; details: Compound concentration 10.0 uM
[4] = target: Prostaglandin E2 receptor EP4 subtype (Homo sapiens) (UniProt P35408); test: Inhibition of Prostanoid EP4 at 10 µM in the Eurofins-Panlabs radioligand binding assay (Eurofins_assay_268420); parameters: ligand concentration 1 nM; details: Compound concentration 10.0 uM
[5] = target: voltage-gated sodium channel, site 2 (Rattus norvegicus, UniProt F1LQQ7+O08562+O88420+O88457+P04774+P04775+P08104+P15389+P15390+Q62968); test: Inhibition of Sodium Channel, Site 2 at 10 µM in the Eurofins-Panlabs radioligand binding assay (Eurofins_assay_279510); assay type: protein assay; parameters: ligand concentration 5 nM, non-specific ligand with concentration 100 µM Veratridine, incubation time 60 min, incubation temperature 37 °C; details: male, Wistar, rat whole brain (except cerebellum) membranes, probe [3H] Batrachotoxinin, compound concentration 10 uM
[6] = target: Substance-P receptor (Homo sapiens) (UniProt P25103); test: Inhibition of Tachykinin NK1 at 10 µM in the Eurofins-Panlabs radioligand binding assay (Eurofins_assay_255520); parameters: ligand concentration 0.8 nM; details: Compound concentration 10.0 uM
Sequence of Substance-P receptor (Homo sapiens) (P25103 whole entry): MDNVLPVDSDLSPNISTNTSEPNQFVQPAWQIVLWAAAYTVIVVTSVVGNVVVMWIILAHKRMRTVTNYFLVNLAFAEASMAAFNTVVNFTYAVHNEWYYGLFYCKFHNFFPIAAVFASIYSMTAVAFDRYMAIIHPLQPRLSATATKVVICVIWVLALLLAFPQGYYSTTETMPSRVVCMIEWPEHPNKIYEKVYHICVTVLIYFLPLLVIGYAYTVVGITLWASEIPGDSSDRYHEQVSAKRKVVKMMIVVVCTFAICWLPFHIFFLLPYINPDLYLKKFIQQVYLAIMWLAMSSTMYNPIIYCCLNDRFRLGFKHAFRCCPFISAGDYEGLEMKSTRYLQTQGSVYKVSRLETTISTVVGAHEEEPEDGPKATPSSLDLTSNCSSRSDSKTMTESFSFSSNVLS

[7] = target: Alpha-1A adrenergic receptor (Homo sapiens) (UniProt P35348); details: Rattus norvegicus; Compound concentration 10.0 uM
Sequence of Alpha-1A adrenergic receptor (Homo sapiens) (P35348 whole entry): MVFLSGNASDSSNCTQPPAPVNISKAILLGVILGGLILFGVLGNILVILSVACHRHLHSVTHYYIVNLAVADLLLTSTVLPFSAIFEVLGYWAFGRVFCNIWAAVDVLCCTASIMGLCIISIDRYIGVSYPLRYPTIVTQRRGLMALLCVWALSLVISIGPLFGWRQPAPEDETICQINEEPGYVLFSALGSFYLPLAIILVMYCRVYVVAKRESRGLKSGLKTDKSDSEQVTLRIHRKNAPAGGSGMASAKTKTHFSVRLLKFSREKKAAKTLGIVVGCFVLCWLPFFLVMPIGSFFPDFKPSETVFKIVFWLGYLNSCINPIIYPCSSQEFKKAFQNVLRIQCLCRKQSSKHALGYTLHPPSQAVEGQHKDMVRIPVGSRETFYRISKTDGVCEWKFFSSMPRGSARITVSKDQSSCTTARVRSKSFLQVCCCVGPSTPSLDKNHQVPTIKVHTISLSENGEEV

[8] = target: Beta-2 adrenergic receptor (Homo sapiens) (UniProt P07550); details: Compound concentration 10.0 uM
Sequence of Beta-2 adrenergic receptor (Homo sapiens) (P07550 whole entry, looked up): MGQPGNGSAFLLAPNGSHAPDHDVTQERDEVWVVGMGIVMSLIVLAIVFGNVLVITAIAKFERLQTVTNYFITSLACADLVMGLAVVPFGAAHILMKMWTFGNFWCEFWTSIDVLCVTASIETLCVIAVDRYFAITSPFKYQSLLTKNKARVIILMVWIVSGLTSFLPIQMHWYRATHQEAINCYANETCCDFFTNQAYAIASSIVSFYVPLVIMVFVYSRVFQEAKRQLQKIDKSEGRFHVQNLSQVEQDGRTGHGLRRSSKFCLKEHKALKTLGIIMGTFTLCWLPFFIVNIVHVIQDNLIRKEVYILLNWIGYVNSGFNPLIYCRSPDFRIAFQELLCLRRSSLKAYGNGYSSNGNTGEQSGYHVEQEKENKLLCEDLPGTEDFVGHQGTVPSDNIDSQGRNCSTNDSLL

[9] = target: D(1A) dopamine receptor (Homo sapiens) (UniProt P21728); details: Compound concentration 10.0 uM
[10] = target: Endothelin receptor type B (Homo sapiens) (UniProt P24530); details: Compound concentration 10.0 uM
Sequence of Endothelin receptor type B (Homo sapiens) (P24530 whole entry): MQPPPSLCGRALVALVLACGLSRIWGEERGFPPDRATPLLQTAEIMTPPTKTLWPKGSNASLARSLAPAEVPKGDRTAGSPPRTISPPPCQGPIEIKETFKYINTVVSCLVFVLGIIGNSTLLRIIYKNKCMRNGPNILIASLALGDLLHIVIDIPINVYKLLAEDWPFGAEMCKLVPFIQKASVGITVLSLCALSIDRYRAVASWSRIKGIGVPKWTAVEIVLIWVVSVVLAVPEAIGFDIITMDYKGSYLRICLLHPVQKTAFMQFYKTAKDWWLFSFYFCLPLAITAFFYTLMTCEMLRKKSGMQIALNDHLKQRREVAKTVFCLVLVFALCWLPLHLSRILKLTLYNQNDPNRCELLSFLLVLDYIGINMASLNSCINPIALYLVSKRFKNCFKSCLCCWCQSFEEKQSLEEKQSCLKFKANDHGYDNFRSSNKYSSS

[11] = target: T2, Muscarinic acetylcholine receptor M2 (Homo sapiens) (UniProt P08172); details: Compound concentration 10.0 uM
T2 sequence (whole entry): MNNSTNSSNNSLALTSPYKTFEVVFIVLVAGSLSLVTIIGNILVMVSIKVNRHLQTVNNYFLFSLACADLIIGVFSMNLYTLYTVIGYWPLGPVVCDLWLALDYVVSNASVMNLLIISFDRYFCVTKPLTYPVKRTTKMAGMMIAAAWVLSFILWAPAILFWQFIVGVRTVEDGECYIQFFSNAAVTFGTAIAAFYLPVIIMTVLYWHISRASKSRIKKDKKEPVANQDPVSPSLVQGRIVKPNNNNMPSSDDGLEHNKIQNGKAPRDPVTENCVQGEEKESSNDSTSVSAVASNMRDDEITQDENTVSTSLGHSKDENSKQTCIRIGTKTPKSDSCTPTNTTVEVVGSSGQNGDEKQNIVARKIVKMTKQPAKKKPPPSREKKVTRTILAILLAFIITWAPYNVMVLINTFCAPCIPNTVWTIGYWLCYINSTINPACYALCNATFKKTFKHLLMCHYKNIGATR

In the case of `O=C(O)[C@H]1[C@H](Cn2nnc3ccccc3c2=O)CC[C@@H]1C(=O)c1ccc(OCCC2CCOCC2)cc1` [BAY-7598], the inhibition [1] is reported as -9%, the inhibition at 90 min, 10 µM [2] is reported as 0% (not active) and the inhibition [3] is reported as 0%. For the same compound, the inhibition (Mus musculus) was 0%, the inhibition [4] was 19% and the inhibition at 60 min, 10 µM [5] was -1% (not active). For the same compound, the inhibition [6] was -4%, the inhibition [7] was 1% and the inhibition [8] was 4%. The inhibition [9] was 3%, the inhibition [10] was 18% and the inhibition [11] was 0%.
